Usually IC50 stands for the concentration that inhibits the measured activity by half.

Where a SMILES comes first, the peptide text is derived from it. A value given as a limit tells only on which side of the number the result lay.

In this assay the target is T1, Interleukin-23 receptor (Homo sapiens, UniProt Q5VWK5).
T1 sequence (Q5VWK5 whole entry): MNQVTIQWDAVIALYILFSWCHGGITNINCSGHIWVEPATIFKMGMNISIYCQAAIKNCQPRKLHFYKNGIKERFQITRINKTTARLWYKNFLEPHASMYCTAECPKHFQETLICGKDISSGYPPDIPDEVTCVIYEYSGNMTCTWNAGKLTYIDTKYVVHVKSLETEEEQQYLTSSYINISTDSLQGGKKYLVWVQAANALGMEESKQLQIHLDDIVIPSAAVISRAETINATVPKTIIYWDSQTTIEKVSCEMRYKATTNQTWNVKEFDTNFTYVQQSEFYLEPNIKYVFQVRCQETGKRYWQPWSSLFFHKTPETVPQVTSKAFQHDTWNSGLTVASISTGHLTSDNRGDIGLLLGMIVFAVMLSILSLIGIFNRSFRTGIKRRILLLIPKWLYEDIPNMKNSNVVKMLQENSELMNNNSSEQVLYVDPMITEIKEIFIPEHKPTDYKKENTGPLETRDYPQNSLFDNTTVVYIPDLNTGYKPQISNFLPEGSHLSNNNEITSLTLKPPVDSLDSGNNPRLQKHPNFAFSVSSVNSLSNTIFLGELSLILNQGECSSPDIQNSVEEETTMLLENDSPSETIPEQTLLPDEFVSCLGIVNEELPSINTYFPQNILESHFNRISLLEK
Kind of assay: Inhibition of interleukin-23 binding to human interleukin-23 receptor incubated for 2 hrs by competitive binding ELISA. (In an ELISA, binding on a coated surface is turned into a signal by an enzyme label.)

`CC(=O)N[C@@H](CS)C(=O)N[C@@H](CCC(=O)O)C(=O)N[C@@H](CC(=O)O)C(=O)N[C@@H](Cc1c[nH]c2ccccc12)C(=O)N[C@@H](CCCCN)C(=O)N[C@@H](CS)C(=O)N[C@@H](Cc1ccc(O)cc1)C(=O)N[C@@H](Cc1c[nH]c2ccccc12)C(=O)N[C@@H](Cc1cnc[nH]1)C(=O)N[C@@H](CCCCN)C(=O)N[C@@H](Cc1ccc(O)cc1)C(=O)NCC(N)=O` (Ac-CEDWKCYWHKYG-NH2) registered an IC50 of under 500 nM.
The compound `CC(=O)NCC(=O)NCC(=O)NCC(=O)N[C@@H](CCC(=O)O)C(=O)N[C@@H](CS)C(=O)N[C@@H](CCC(=O)O)C(=O)N[C@@H](CC(N)=O)C(=O)N[C@@H](Cc1c[nH]c2ccccc12)C(=O)N[C@@H](CCC(=O)O)C(=O)N[C@@H](CS)C(=O)N[C@@H](Cc1ccc(O)cc1)C(=O)N[C@@H](Cc1c[nH]c2ccccc12)C(=O)N[C@@H](Cc1cnc[nH]1)C(=O)N[C@H](C(=O)N[C@@H](Cc1ccccc1)C(=O)NCC(N)=O)[C@@H](C)O` (Ac-GGGECENWECYWHTFG-NH2) displayed an IC50 of 500 to 1000 nM.
`CC(=O)N[C@@H](CS)C(=O)N[C@@H](CCC(N)=O)C(=O)N[C@H](C(=O)N[C@@H](Cc1c[nH]c2ccccc12)C(=O)N[C@@H](CCC(N)=O)C(=O)N[C@@H](CS)C(=O)N[C@@H](Cc1ccc(O)cc1)C(=O)N[C@@H](Cc1c[nH]c2ccccc12)C(=O)N[C@@H](CCCNC(=N)N)C(=O)N(C)CC(=O)N[C@@H](CC(N)=O)C(=O)NCC(=O)NCCOCC(=O)N[C@H](CCCCN)C(N)=O)[C@@H](C)O` registered an IC50 of over 1000 nM.
In the case of `CC(=O)N[C@H](C(=O)N[C@@H](CCC(N)=O)C(=O)N[C@H](C(=O)N[C@@H](Cc1c[nH]c2ccccc12)C(=O)N[C@@H](CCC(N)=O)C(=O)N[C@H](C(=O)N[C@@H](Cc1ccc(C#N)cc1)C(=O)N[C@@H](Cc1ccc2ccccc2c1)C(=O)N[C@@](C)(CCCN)C(=O)N[C@@H](CCC(=O)O)C(=O)N[C@@H](CC(N)=O)C(=O)NCC(N)=O)C(C)(C)S)[C@@H](C)O)C(C)(C)S`, the 50% inhibitory concentration (IC50) was in the range of 100 to 1000 nM.
As for `CC(=O)N[C@@H](CS)C(=O)N[C@@H](CCC(N)=O)C(=O)N[C@H](C(=O)N[C@@H](Cc1c[nH]c2ccccc12)C(=O)N[C@@H](CCC(N)=O)C(=O)N[C@@H](CS)C(=O)N[C@@H](Cc1ccc(O)cc1)C(=O)N[C@H](CC(=O)N[C@@H](CCCNC(=N)N)C(=O)N[C@H](C(=O)N[C@@H](CC(N)=O)C(=O)NCC(=O)NCCOCC(=O)N[C@H](CCCCN)C(N)=O)C(C)C)Cc1cccc2ccccc12)[C@@H](C)O`, the IC50 was over 30000 nM.
`CC(=O)N[C@@H](C)C(=O)N[C@@H](CS)C(=O)N[C@@H](CC(=O)O)C(=O)N[C@@H](Cc1c[nH]c2ccccc12)C(=O)N[C@H](C(=O)N[C@H](C(=O)N[C@@H](Cc1ccc(O)cc1)C(=O)N[C@@H](Cc1c[nH]c2ccccc12)C(=O)N[C@@H](CCCNC(=N)N)C(=O)N[C@@H](CCCCN)C(=O)N[C@@H](Cc1ccccc1)C(=O)NCC(=O)NCCOCC(=O)N[C@H](CCCCN)C(N)=O)C(C)(C)S)C(C)C` displayed a half-inhibitory concentration (IC50) of 1000 to 10000 nM.
With `CC(=O)N[C@@H](CS)C(=O)N[C@@H](CCC(N)=O)C(=O)N[C@H](C(=O)N[C@@H](Cc1c[nH]c2ccccc12)C(=O)N[C@@H](CCC(N)=O)C(=O)N[C@@H](CS)C(=O)N[C@@H](Cc1ccc(O)cc1)C(=O)N[C@@H](Cc1c[nH]c2ccccc12)C(=O)N[C@@H](CCC(C)C)C(=O)N[C@@H](CCC(=O)O)C(=O)N[C@@H](CC(N)=O)C(=O)NCC(=O)N1CCC[C@H]1C(N)=O)[C@@H](C)O` the figure was 97 to 239 nM; with `CC(=O)N[C@@H](CS)C(=O)N[C@@H](C)C(=O)N[C@@H](CC(=O)O)C(=O)N[C@@H](Cc1c[nH]c2ccccc12)C(=O)N[C@H](C(=O)N[C@@H](CS)C(=O)N[C@@H](Cc1ccc(O)cc1)C(=O)N[C@H](CC(=O)N[C@@H](CCCN)C(=O)N[C@@H](CN)C(=O)N[C@@H](Cc1ccccc1)C(=O)NCC(=O)NCCOCC(=O)N[C@H](CCCCN)C(N)=O)Cc1c[nH]c2ccccc12)C(C)C`, 6000 nM; with `CC(=O)N[C@@H](CS)C(=O)N[C@@H](CCC(N)=O)C(=O)N[C@H](C(=O)N[C@@H](Cc1c[nH]c2ccccc12)C(=O)N[C@@H](CCC(N)=O)C(=O)N[C@@H](CS)C(=O)N[C@@H](Cc1ccc(O)cc1)C(=O)N[C@@H](Cc1c[nH]c2ccccc12)C(=O)N[C@H](CC(C)C)C(=O)N[C@@H](CCC(=O)O)C(=O)N[C@@H](CC(N)=O)C(=O)NCC(N)=O)[C@@H](C)O`, 319 nM.
`CC(=O)N[C@@H](CS)C(=O)N[C@@H](CCC(N)=O)C(=O)N[C@H](C(=O)N[C@@H](Cc1c[nH]c2ccccc12)C(=O)N[C@@H](CCC(N)=O)C(=O)N[C@@H](CS)C(N)=O)[C@@H](C)O` (Ac-CQTWQC-NH2): the IC50 was over 30000 nM.
As for `CC(=O)N[C@@H](CS)C(=O)N[C@@H](CCC(N)=O)C(=O)N[C@H](C(=O)N[C@@H](Cc1c[nH]c2ccccc12)C(=O)N[C@@H](CCC(N)=O)C(=O)N[C@@H](CS)C(=O)N[C@@H](Cc1ccc(O)cc1)C(=O)N[C@@H](Cc1c[nH]c2ccccc12)C(=O)N[C@@H](CCCNC(=N)N)C(=O)N[C@@H](CCCNC(=N)N)C(=O)N[C@@H](CC(N)=O)C(=O)NCC(=O)NCCOCC(=O)N[C@H](CCCCN)C(N)=O)[C@@H](C)O`, the IC50 was under 500 nM.
As for `CC(C)[C@H](NC(=O)[C@H](Cc1c[nH]c2ccccc12)NC(=O)[C@H](CC(=O)O)NC(=O)[C@@H](NC(=O)[C@@H](N)CS)[C@@H](C)O)C(=O)N[C@@H](CS)C(=O)N[C@@H](Cc1ccc(O)cc1)C(=O)N[C@@H](Cc1c[nH]c2ccccc12)C(=O)N[C@@H](Cc1cnc[nH]1)C(=O)N[C@@H](CCC(=O)O)C(=O)N[C@@H](Cc1ccc(O)cc1)C(=O)N[C@@H](CO)C(N)=O` (H-CTDWVCYWHEYS-NH2), the figure is over 1000 nM; as for `CC(C)[C@H](NC(=O)[C@H](Cc1c[nH]c2ccccc12)NC(=O)[C@H](CC(=O)O)NC(=O)[C@H](C)NC(=O)[C@@H](N)CS)C(=O)N[C@@H](CS)C(=O)N[C@@H](Cc1ccc(O)cc1)C(=O)N[C@@H](Cc1cccc2ccccc12)C(=O)N[C@@H](Cc1cnc[nH]1)C(=O)N[C@H](C(=O)N[C@H](Cc1ccccc1)C(=O)O)[C@@H](C)O`, over 1000 nM; as for `CC[C@H](C)[C@H](NC(=O)[C@H](Cc1cnc[nH]1)NC(=O)[C@H](Cc1c[nH]c2ccccc12)NC(=O)[C@H](Cc1ccc(O)cc1)NC(=O)[C@H](CS)NC(=O)[C@H](CCCCN)NC(=O)[C@H](Cc1c[nH]c2ccccc12)NC(=O)[C@H](CC(=O)O)NC(=O)[C@H](CCCCN)NC(=O)[C@@H](N)CS)C(=O)N[C@@H](Cc1ccc(O)cc1)C(=O)NCC(N)=O` (H-CKDWKCYWHIYG-NH2), over 1000 nM.
With `CC(=O)N[C@@H](CS)C(=O)N[C@@H](C)C(=O)N[C@@H](CC(=O)O)C(=O)N[C@@H](Cc1c[nH]c2ccccc12)C(=O)N[C@H](C(=O)N[C@@H](CS)C(=O)N[C@@H](Cc1ccc(O)cc1)C(=O)N[C@@H](Cc1cccc2ccccc12)C(=O)N[C@@H](Cc1cnc[nH]1)C(=O)N[C@H](C(=O)N[C@@H](Cc1ccccc1)C(=O)NC(C)(C)C(N)=O)[C@@H](C)O)C(C)C` the figure was over 1000 nM.
With `CCCCCCCCCCCCCCCC(=O)NCCCC[C@H](NC(=O)[C@H](Cc1c[nH]c2ccccc12)NC(=O)[C@@H](NC(=O)[C@H](CCC(N)=O)NC(=O)[C@H](CS)NC(C)=O)[C@@H](C)O)C(=O)N[C@@H](CS)C(=O)N[C@@H](Cc1ccc(O)cc1)C(=O)N[C@@H](Cc1c[nH]c2ccccc12)C(=O)N[C@@H](CC(C)C)C(=O)N[C@@H](CCC(=O)O)C(=O)N[C@@H](CC(N)=O)C(=O)NCC(N)=O`, the IC50 was 30000 nM.
As for `CC(=O)N[C@@H](CS)C(=O)N[C@@H](CCC(N)=O)C(=O)N[C@H](C(=O)N[C@@H](Cc1c[nH]c2ccccc12)C(=O)N[C@@H](CCC(N)=O)C(=O)N[C@@H](CS)C(=O)N[C@@H](Cc1ccc(O)cc1)C(=O)N[C@@H](Cc1c[nH]c2ccccc12)C(=O)N1CCC[C@@H]1C(=O)N[C@@H](CCC(=O)O)C(=O)N[C@@H](CC(N)=O)C(=O)NCC(N)=O)[C@@H](C)O`, the half-inhibitory concentration (IC50) is over 30000 nM.
Regarding `CC(=O)N[C@@H](CS)C(=O)N[C@@H](CCC(N)=O)C(=O)N[C@H](C(=O)N[C@@H](Cc1c[nH]c2ccccc12)C(=O)N[C@@H](CCC(N)=O)C(=O)N[C@@H](CS)C(=O)N[C@@H](Cc1ccc(O)cc1)C(=O)N[C@H](CC(=O)N[C@@H](CCCNC(=N)N)C(=O)N[C@H](C(=O)N[C@@H](CC(N)=O)C(=O)NCC(=O)NCCOCC(=O)N[C@H](CCCCN)C(N)=O)C(C)C)Cc1ccc(O)cc1)[C@@H](C)O`, the IC50 was over 30000 nM.
In turn, `CC(=O)N[C@@H](CS)C(=O)N[C@@H](CCCCN)C(=O)N[C@H](C(=O)N[C@@H](Cc1c[nH]c2ccccc12)C(=O)N[C@H](C(=O)N[C@@H](CS)C(=O)N[C@@H](Cc1ccc(O)cc1)C(=O)N[C@@H](Cc1c[nH]c2ccccc12)C(=O)N[C@@H](Cc1cnc[nH]1)C(=O)N[C@@H](CCC(=O)O)C(=O)N[C@@H](Cc1ccccc1)C(=O)NCC(N)=O)[C@@H](C)O)[C@@H](C)O` (Ac-CKTWTCYWHEFG-NH2) displayed an IC50 of under 500 nM.
In turn, `CC(=O)N[C@H](C(=O)N[C@@H](CCC(N)=O)C(=O)N[C@@H](Cc1ccccc1)C(=O)N[C@@H](CC(=O)O)C(=O)N[C@@H](CS)C(=O)N[C@@H](CCCNC(=N)N)C(=O)N[C@H](C(=O)N[C@@H](Cc1c[nH]c2ccccc12)C(=O)N[C@@H](CCC(=O)O)C(=O)N[C@@H](CS)C(=O)N[C@@H](Cc1ccc(O)cc1)C(=O)N[C@@H](Cc1c[nH]c2ccccc12)C(=O)N[C@@H](Cc1cnc[nH]1)C(=O)N[C@H](C(=O)N[C@@H](Cc1ccccc1)C(=O)NCC(N)=O)[C@@H](C)O)[C@@H](C)O)[C@@H](C)O` came in with an IC50 of 500 to 1000 nM.

For the origin of these results see ChEMBL document CHEMBL4417631, “Oral peptide inhibitors of interleukin-23 receptor and their use to treat inflammatory bowel diseases” (2017).
